This note sets out measurements from ChEMBL document CHEMBL5653615 (J Biol Chem, 2013).

Experiment [1] deals with Calcium/calmodulin-dependent protein kinase type 1D (Homo sapiens) (UniProt Q8IU85). Description: Inhibition of human CAMK1d at 500 nM by HotSpot assay relative to control.
In experiment [2] the target is LIM domain kinase 1 (Homo sapiens) (UniProt P53667). The experiment is described as follows: Inhibition of human LIMK1 at 500 nM by HotSpot assay relative to control.
Experiment [3] deals with Rho-associated protein kinase 2 (Homo sapiens) (UniProt O75116). Description: Inhibition of human ROCK2 at 500 nM by HotSpot assay relative to control.
Rho-associated protein kinase 2 (Homo sapiens), sequence (O75116 whole entry, looked up): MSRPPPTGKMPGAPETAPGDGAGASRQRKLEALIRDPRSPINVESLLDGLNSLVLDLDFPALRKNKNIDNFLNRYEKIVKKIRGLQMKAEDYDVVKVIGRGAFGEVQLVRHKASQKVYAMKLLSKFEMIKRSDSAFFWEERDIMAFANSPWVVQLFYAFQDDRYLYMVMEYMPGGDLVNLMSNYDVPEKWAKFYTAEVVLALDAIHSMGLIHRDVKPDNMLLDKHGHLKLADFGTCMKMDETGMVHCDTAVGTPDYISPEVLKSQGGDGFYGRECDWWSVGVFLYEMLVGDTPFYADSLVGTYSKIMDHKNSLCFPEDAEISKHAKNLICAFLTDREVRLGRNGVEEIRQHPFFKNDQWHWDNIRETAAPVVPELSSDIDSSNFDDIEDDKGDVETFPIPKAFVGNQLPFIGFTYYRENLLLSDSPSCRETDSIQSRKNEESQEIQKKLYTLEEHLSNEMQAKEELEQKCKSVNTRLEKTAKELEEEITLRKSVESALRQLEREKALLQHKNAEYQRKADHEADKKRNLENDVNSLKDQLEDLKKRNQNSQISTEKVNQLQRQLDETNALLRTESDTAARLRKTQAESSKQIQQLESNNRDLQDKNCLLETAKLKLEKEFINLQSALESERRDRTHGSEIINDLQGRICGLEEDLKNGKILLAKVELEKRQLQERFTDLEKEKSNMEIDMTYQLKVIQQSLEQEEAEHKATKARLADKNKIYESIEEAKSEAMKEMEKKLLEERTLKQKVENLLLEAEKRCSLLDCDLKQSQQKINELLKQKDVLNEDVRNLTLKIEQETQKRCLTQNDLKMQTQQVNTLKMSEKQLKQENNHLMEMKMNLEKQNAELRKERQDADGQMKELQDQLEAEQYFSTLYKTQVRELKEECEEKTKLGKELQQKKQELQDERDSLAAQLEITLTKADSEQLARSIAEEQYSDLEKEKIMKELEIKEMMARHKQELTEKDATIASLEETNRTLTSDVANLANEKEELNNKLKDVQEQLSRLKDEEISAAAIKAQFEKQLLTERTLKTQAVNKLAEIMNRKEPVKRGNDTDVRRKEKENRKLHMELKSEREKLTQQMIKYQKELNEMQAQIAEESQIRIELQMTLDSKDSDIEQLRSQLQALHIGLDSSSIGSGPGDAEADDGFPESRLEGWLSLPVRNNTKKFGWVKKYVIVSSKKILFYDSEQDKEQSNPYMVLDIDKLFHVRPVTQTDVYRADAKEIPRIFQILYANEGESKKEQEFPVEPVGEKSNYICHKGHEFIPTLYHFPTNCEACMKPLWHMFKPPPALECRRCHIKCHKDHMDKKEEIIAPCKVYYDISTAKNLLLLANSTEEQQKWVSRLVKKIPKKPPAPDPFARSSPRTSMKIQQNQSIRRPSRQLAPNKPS
For experiment [4], the target named is T1, Serine/threonine-protein kinase Sgk2 (Homo sapiens) (UniProt Q9HBY8).
T1 sequence (whole entry): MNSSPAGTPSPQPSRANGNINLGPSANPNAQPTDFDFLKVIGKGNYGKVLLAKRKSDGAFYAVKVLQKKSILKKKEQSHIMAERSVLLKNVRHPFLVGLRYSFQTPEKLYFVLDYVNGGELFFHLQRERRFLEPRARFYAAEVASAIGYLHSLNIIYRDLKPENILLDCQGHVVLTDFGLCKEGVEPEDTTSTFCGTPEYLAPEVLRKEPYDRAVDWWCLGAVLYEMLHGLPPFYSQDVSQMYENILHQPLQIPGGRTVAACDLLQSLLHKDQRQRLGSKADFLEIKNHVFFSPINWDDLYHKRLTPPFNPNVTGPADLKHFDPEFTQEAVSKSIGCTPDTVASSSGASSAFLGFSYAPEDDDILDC
Description: Inhibition of human SGK2 at 500 nM by HotSpot assay relative to control.

In experiment [5] the target is T2, Serine/threonine-protein kinase haspin (Homo sapiens) (UniProt Q8TF76).
T2 sequence (whole entry): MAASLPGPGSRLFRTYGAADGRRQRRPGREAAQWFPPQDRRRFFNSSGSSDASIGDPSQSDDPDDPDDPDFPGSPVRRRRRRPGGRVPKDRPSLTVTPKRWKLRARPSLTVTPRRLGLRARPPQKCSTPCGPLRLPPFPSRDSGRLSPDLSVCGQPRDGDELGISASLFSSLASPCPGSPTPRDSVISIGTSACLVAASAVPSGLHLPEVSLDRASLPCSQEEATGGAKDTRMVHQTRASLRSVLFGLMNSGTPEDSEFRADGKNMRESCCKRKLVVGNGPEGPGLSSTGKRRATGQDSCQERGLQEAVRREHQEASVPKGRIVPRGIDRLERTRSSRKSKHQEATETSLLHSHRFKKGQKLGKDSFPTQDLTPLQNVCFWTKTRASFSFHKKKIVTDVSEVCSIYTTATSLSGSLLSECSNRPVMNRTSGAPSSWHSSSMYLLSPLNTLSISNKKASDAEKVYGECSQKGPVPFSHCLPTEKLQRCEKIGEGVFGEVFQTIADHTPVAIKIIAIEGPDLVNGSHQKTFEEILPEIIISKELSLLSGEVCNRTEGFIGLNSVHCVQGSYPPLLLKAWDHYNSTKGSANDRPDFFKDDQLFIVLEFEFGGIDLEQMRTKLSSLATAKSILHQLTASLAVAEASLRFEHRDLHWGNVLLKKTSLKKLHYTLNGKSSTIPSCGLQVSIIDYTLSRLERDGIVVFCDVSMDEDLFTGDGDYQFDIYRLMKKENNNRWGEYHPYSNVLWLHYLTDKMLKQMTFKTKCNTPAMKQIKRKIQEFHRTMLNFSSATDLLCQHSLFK
The experiment is described as follows: Inhibition of human Haspin at 500 nM by HotSpot assay relative to control.

Experiment [6] addresses T3, cGMP-dependent protein kinase 2 (Homo sapiens) (UniProt Q13237).
T3 sequence (whole entry): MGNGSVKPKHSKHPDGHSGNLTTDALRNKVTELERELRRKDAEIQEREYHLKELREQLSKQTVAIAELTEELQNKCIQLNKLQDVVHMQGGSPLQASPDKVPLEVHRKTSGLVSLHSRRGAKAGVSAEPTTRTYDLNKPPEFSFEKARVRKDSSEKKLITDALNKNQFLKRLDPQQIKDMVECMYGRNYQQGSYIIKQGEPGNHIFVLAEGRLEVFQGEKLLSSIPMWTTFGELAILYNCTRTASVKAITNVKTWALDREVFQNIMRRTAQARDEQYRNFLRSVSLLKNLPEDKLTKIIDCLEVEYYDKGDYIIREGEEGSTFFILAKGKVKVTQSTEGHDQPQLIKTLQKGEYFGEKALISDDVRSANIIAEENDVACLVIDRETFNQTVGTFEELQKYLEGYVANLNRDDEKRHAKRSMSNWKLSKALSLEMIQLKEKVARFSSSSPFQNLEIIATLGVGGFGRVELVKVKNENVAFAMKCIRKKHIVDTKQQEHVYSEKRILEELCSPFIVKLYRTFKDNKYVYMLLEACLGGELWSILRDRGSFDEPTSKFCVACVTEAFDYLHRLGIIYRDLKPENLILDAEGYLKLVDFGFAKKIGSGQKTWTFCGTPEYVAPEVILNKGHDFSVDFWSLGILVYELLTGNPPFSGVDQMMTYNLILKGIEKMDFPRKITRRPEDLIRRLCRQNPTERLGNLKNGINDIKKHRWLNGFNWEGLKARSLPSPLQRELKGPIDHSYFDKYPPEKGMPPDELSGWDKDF
Description: Inhibition of human PRKG2 at 500 nM by HotSpot assay relative to control.

The target in experiment [7] is Serine/threonine-protein kinase 10 (Homo sapiens) (UniProt O94804). Description: Inhibition of human LOK at 500 nM by HotSpot assay relative to control.
Serine/threonine-protein kinase 10 (Homo sapiens), sequence (O94804 whole entry, looked up): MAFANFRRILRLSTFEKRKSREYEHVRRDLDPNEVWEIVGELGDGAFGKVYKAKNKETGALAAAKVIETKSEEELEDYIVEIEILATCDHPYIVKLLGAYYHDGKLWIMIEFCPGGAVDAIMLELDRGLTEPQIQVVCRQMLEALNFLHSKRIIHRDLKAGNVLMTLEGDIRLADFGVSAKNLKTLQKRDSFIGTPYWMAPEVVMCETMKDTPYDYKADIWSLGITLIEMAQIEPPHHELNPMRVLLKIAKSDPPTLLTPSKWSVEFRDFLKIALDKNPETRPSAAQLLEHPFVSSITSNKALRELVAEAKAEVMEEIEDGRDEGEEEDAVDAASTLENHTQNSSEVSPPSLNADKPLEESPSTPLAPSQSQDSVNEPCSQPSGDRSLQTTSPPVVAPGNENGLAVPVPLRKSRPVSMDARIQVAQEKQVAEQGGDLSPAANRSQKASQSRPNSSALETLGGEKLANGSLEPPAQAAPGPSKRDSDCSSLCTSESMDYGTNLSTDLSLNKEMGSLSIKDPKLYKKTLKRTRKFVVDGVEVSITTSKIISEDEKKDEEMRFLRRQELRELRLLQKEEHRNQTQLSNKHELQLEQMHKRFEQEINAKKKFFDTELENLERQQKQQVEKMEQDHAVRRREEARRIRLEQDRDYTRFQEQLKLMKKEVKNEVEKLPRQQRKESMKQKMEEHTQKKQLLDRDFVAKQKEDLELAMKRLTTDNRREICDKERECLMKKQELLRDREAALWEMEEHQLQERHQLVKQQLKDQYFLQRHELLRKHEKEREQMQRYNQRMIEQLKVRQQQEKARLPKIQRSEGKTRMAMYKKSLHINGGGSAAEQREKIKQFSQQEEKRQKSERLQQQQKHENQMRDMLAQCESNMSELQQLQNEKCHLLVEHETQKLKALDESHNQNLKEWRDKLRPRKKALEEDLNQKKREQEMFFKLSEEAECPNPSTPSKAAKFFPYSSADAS
The target of experiment [8] is Mitogen-activated protein kinase kinase kinase 11 (Homo sapiens) (UniProt Q16584). The experiment is described as follows: Inhibition of human MAP3K11 at 500 nM by HotSpot assay relative to control.
Mitogen-activated protein kinase kinase kinase 11 (Homo sapiens), sequence (Q16584 whole entry, looked up): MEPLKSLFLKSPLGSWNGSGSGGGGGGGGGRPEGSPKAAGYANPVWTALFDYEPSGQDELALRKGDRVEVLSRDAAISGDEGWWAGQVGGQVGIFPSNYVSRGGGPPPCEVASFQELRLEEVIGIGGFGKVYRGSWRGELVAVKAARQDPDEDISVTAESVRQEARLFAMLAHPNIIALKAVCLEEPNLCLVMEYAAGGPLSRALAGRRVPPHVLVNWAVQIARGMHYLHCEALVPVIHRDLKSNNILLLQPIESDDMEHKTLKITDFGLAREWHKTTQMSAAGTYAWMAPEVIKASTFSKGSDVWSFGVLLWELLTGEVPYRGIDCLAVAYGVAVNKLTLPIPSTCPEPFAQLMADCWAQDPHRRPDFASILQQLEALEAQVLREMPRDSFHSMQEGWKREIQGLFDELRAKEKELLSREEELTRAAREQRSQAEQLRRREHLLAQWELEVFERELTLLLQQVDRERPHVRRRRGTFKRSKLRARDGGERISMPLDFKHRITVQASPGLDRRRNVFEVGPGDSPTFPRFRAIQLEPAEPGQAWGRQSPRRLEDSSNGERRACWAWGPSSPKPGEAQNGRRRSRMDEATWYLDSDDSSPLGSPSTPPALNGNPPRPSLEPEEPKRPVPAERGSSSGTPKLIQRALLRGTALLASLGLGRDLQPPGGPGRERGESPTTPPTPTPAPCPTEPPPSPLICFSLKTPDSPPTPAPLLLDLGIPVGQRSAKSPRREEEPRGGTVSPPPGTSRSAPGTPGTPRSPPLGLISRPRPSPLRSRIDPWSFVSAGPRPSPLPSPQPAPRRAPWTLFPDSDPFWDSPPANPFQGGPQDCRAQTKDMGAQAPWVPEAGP

Calcium/calmodulin-dependent protein kinase type 1D (Homo sapiens), sequence (Q8IU85 whole entry, looked up, the tested form may be a part): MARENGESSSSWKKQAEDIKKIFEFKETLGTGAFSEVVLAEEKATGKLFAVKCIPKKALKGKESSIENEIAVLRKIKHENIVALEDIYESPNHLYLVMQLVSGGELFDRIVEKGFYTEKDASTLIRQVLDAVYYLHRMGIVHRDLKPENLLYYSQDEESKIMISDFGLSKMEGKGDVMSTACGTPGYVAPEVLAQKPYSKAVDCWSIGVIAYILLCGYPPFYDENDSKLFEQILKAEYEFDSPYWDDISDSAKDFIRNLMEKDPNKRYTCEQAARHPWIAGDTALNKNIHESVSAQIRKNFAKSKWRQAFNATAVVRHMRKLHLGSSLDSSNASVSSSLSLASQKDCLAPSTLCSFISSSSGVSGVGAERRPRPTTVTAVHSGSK
LIM domain kinase 1 (Homo sapiens), sequence (P53667 whole entry, looked up, the tested form may be a part): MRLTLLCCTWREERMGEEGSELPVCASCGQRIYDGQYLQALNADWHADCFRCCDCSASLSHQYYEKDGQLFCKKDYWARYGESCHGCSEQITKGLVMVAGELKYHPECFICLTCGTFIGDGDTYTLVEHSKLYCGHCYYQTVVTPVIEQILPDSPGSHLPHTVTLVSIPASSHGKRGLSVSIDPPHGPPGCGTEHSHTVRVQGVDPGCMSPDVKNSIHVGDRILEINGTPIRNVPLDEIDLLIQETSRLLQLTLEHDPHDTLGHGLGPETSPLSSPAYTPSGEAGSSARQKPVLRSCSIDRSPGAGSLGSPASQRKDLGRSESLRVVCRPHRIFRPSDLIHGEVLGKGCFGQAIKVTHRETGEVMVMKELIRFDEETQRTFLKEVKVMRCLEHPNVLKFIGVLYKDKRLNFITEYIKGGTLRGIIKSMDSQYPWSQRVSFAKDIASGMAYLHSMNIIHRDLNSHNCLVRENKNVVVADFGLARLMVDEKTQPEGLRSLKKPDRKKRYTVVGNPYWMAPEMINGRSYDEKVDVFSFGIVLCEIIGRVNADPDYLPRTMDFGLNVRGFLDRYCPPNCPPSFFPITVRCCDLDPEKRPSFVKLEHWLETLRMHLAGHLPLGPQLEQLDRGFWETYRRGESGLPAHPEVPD

For the compound `Nc1n[nH]c2nnc(-c3c(-c4ccccc4)nn4ccccc34)cc12`, the inhibition (as a rule, the change of the read-out against control, counted positive when it falls) in experiment [1] is 4.06%; in experiment [2], 1.81%; in experiment [3] it was 10.4%; in experiment [4], 1.2%; in experiment [5], 2.91%; in experiment [6] it was -3.62%. The values for the inhibition in experiment [7] and in experiment [8] were 29.1% and 5.68%, respectively.
Take `Oc1n[nH]c2nnc(-c3c(-c4ccccc4)nn4ccccc34)cc12`: the inhibition in experiment [1] was -3.04%; in experiment [2], -1.82%; in experiment [3] it was 0.7%; in experiment [4] it was 3.78%; in experiment [5] it was 11.6%; in experiment [6] it was 1.76%. The inhibition came to 5.81% in experiment [7] and 2.87% in experiment [8].
